According to patent US6713506B2, “Tea polyphenol esters and analogs thereof for cancer prevention and treatment” (University of South Florida, priority 2000, dated 2004):

How the values were obtained:
[1] = biological target: T1, proteasomal trypsin-like activity in Jurkat T cell extract (Homo sapiens, UniProt Q99436); assay: Proteasome trypsin-like activity in Jurkat T cell free extract; type: biochemical; settings: EGCG 10 μM
T1 construct: endogenous in cells; host or cells: Jurkat T cells (whole cell extract or intact cells)
Procedure: Inhibition of the proteasome activity with cell free extracts by tea polyphenols—The whole cell extract (3.5 μg) from Jurkat T cells is incubated for 90 min at 37° C. with 20 μM of a fluorogenic peptide substrate, Suc-Leu-Leu-Val-Tyr-AMC (for the chymotrypsin-like activity), Z-Leu-Leu-Glu-AMC [peptidyl-glutamyl peptide-hydrolyzing (PGPH) activity; Calbiochem], and Z-Gly-Gly-Arg-AMC (for the trypsin-like activity; Bachem), in 100 μl of the assay buffer with or without 10 μM EGCG or EGC. The hydrolyzed AMCs are quantified as described above.

[2] = biological target: T2, trypsin-like activity in living Jurkat T cells (Homo sapiens, UniProt Q99436); assay: Proteasome trypsin-like activity in living Jurkat T cells; type: cell-based
T2 construct: endogenous in cells; host or cells: Jurkat T cells (whole cell extract or intact cells)
Procedure: Inhibition of the proteasome activity in living cells by tea polyphenols—To measure inhibition of the chymotrypsin-like activity in living tumor cells, Jurkat T (1×10^5 cells/ml/well), MCF7 or PC-3 cells (1×10^4 cells/ml/well) are cultured in 24-well plates. These cells are first incubated for 12 h with various concentrations of EGCG, EGC, β-lactone or LLnL, followed by an additional 2 h-incubation with fluorogenic peptide substrates, Suc-Leu-Leu-Val-Tyr-AMC for the chymotrypsin-like activity and Z-Gly-Gly-Arg-AMC for the trypsin-like activity. After that, cell medium (200 μl per sample) is collected and used for measurement of free AMCs.

[3] = tested on: SV-40-transformed WI-38 cells (VA-13); assay: Cell cycle analysis by flow cytometry, VA-13 cells; type: cell-based, human; settings: VA-13, 10 μM
Procedure: FIG. 6. Cell cycle analysis. Asynchronous Jurkat, LNCaP, WI-38, and VA-13 cells are treated with 10 μM EGCG and harvested at the time points indicated. Cells are prepared and analyzed by flow cytometry as described in the The Materials and Methods section of Example 1. Growth arrest is determined by the increase in the percentage of G1 population.
Cell cycle analysis—Cell cycle analysis based on DNA content is performed as follows. Cells are harvested, counted and washed twice with PBS. Cells (5×10^6 ) are then suspended in 0.5 ml PBS, pipetted and fixed in 5 ml of 70% ethanol for at least 2 h at −20° C. Cells are centrifuged, resuspended in 1 ml of propidium iodide staining solution (50 μg propidium iodide, 100 units RNase A and 1 mg glucose per ml PBS) and incubated at room temperature for 30 min. The cells are then analyzed with FACScan (Becton Dickinson Immunocytometry, CA.), ModFit LT and WinMDI V.2.8 cell cycle analysis software (Verity Software, Topsham, Me.). The cell cycle distribution is shown as the percentage of cells containing G1, S, G2, and M DNA judged by propidium iodide staining.

p27 in MCF-7 tumors = assay: Nude mice bearing human breast MCF-7 tumors, biochemical end points; type: in vivo; settings: mice pre-fed or injected into the tumors
Description: Treatment of drinking water with green tea, a green tea polyphenol extract or EGCG, or direct injection into tumors of a solution containing a green tea polyphenol extract or EGCG, inhibits breast or other tumor growth in nude mice. In (a) it is shown that antitumor activity of tea polyphenols correlates to their potency to inhibit the proteasome activity. All mice receive a 90-day slow-release subcutaneous (s.c.) estrogen pellet (Innovative Research) in the anterior flank 7 days before tumor inoculation. In Experiment 1, mice (5 per group) are pre-fed with a solution of EGCG, EGC, ECG, EC, a green tea extract (1, 10, and 50 mg/kg) or water three times per week for 2 weeks, followed by s.c. implanting human breast MCF-7 tumor cells in nude mice above the right and left flanks (10^7 cells per flank). When tumors in the control group reach ˜1000 mm^3 the experiment is terminated. […] Evaluation of the antitumor activity of tea polyphenols is determined by measuring the change in tumor size of the treated group compared to the control group. […] Levels of p27 and Bax protein in tumor tissues are measured by Western blotting and immunohistochemistry. […] Bax localization (by immunohistochemistry), processing of caspase-3, cleavage of PARP (by Western blotting) and apoptosis (by TUNEL) are then measured. […]

O=C(O[C@@H]1Cc2c(O)cc(O)cc2O[C@@H]1c1cc(O)c(O)c(O)c1)c1cc(O)c(O)c(O)c1 [EGCG, (−)-epigallocatechin-3-gallate]
effect on proteasomal trypsin-like activity (in words) [1]: does not affect | inhibition of trypsin-like activity in living Jurkat T cells (in words) [2]: does not significantly inhibit | increase in G1 population ([3]; 12 h): 21% | increase in G1 population ([3]; 36 h): 33% | p27 levels in tumors (p27 in MCF-7 tumors): Increased p27 levels
